Results on 18 compounds are retold here after ChEMBL document CHEMBL1144438, “Dipeptidyl peptidase IV inhibitors derived from beta-aminoacylpiperidines bearing a fused thiazole, oxazole, isoxazole, or pyrazole” (Bioorg Med Chem Lett, 2005).

pIC50: −log10 of the molar value.

The term pIC50 denotes the negative decadic logarithm of the IC50, by convention in mol/L. A higher pIC50 goes with a low IC50. For orientation: half-life means the time in which the quantity being followed falls by half. Read a high half-life as slow decline. For orientation: bioavailability means dose-corrected exposure relative to a reference, in per cent. Low readings indicate poor availability, high ones good availability. What is called clearance is the rate of elimination divided by the concentration.

The target in data set [1] is Dipeptidyl peptidase 9 (Homo sapiens, UniProt Q86TI2). Nature of the data set: Inhibitory concentration against human dipeptidylpeptidase 9.
Dipeptidyl peptidase 9, sequence (Q86TI2 whole entry): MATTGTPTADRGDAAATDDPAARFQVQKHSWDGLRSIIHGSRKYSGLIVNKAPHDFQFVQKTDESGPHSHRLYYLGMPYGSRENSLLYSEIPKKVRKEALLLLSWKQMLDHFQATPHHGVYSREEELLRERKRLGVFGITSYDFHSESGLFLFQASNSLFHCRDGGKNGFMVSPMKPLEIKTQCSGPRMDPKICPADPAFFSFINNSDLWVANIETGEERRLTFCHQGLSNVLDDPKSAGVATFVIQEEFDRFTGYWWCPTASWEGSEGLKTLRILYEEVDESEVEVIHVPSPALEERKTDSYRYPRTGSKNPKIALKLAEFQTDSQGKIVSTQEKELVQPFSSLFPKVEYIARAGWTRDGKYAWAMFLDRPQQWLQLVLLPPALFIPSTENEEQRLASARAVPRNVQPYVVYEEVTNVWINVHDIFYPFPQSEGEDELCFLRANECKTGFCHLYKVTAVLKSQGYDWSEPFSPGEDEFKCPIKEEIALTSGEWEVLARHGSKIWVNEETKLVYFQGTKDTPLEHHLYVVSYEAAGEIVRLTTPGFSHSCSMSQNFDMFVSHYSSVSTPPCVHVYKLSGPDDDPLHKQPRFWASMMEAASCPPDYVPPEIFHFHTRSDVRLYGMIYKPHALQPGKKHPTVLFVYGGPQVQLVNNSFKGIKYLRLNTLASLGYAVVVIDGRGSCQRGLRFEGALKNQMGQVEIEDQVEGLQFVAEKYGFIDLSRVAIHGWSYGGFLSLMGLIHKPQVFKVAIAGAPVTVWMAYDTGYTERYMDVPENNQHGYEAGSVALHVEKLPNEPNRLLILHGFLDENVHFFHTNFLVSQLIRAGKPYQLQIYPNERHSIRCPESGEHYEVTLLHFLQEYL
The target in data set [2] is Dipeptidyl peptidase 8 (Homo sapiens, UniProt Q6V1X1). Nature of the data set: Inhibitory concentration against human dipeptidylpeptidase 8.
Dipeptidyl peptidase 8, sequence (Q6V1X1 whole entry): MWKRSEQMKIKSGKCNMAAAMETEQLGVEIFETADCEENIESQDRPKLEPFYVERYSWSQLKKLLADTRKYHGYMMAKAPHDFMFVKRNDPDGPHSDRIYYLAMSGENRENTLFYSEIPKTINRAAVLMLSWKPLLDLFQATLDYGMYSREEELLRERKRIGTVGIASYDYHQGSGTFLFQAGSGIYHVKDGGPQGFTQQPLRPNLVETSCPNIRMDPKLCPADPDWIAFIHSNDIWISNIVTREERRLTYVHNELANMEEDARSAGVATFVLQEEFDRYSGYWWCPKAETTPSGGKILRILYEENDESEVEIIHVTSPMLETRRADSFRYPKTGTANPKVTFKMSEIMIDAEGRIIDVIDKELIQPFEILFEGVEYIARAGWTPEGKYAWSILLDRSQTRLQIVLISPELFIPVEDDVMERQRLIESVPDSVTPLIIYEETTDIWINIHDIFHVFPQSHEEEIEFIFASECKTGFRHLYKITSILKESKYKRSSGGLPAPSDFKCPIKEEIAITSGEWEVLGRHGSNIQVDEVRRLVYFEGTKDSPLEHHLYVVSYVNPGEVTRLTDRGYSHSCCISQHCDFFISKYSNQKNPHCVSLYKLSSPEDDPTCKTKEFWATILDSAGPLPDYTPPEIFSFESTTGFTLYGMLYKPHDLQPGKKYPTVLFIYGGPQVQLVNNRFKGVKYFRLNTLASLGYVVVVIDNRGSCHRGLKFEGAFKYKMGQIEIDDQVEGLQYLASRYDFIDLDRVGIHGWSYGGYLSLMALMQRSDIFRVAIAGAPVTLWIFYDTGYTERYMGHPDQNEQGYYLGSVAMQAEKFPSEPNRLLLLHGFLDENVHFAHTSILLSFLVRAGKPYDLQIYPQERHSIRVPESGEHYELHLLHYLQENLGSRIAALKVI
Data set [3] can be described thus: Half-life of compound in rats dosed at 1 mg/kg i.v. Type of data set: ADME, organism-based. Also on record: dose 1 mg/kg, route intravenous. The note with it: rat, in vivo, iv.
Data set [4] can be described thus: Oral bioavailability of compound in rats dosed at 2 mg/kg p.o. Type of data set: ADME, organism-based. The note with it: rat, in vivo.
Data set [5] is described as follows: Plasma clearance of compound in rats dosed at 1 mg/kg i.v. Type of data set: ADME, organism-based. Also on record: dose 1 mg/kg, route intravenous. The note with it: rat, iv.
For data set [6], the target named is Dipeptidyl peptidase 2 (Homo sapiens, UniProt Q9UHL4). Nature of the data set: Inhibitory concentration against human dipeptidylpeptidase VII (QPP).

With `N[C@@H](CC(=O)N1CCc2n[nH]c(C(F)(F)C(F)(F)F)c2C1)Cc1cc(F)ccc1F` (stereo in doubt; form 2), the pIC50 in data set [1] is < 4.00.
Consider `Cn1nc(C(F)(F)F)c2c1CCN(C(=O)C[C@H](N)Cc1cc(F)ccc1F)C2`, for which, in data set [1], the pIC50 was < 4.00.
Consider `N[C@@H](CC(=O)N1CCc2noc(C(F)(F)F)c2C1)Cc1cc(F)ccc1F`, for which the pIC50 in data set [1] and in data set [2] was < 4.00 throughout.
With `Cn1nc2c(c1C(F)(F)C(F)(F)F)CN(C(=O)C[C@H](N)Cc1cc(F)ccc1F)CC2`, the pIC50 in data set [1] and in data set [2] was < 4.00 throughout.
In the case of `N[C@@H](CC(=O)N1CCc2sc(C(F)(F)F)nc2C1)Cc1cc(F)ccc1F`, the pIC50 in data set [1] is < 4.00. The half-life in data set [3] was 2 h. This compound showed a bioavailability in data set [4] of 16%. Further, the clearance in data set [5] came out at 250 mL/min/kg.
As to `N[C@@H](CC(=O)N1CCc2c(c(C(F)(F)F)nn2CC(F)(F)F)C1)Cc1cc(F)ccc1F`, the negative logarithm of the IC50 (pIC50) in data set [1] is < 4.00.
Take `N[C@@H](CC(=O)N1CCc2n[nH]c(C(F)(F)C(F)(F)F)c2C1)Cc1cc(F)ccc1F` (stereo in doubt; form 1): the pIC50 in data set [1] was < 4.00.
In the case of `Cn1nc2c(c1C(F)(F)F)CCN(C(=O)C[C@H](N)Cc1cc(F)ccc1F)C2`, in data set [1], the pIC50 is < 4.00.
On to `Cn1nc(C(F)(F)C(F)(F)F)c2c1CCN(C(=O)C[C@H](N)Cc1cc(F)ccc1F)C2`, for which the negative-log IC50 (pIC50) in data set [1] was < 4.00.
As for `N[C@@H](CC(=O)N1CCc2c(noc2C(F)(F)F)C1)Cc1cc(F)ccc1F`, the pIC50 in data set [6] was < 4.00.
For `N[C@@H](CC(=O)N1CCc2nn(CC(F)(F)F)c(C(F)(F)F)c2C1)Cc1cc(F)ccc1F`, the pIC50 in data set [1] and in data set [2] was < 4.00 in each case.
Take `Cn1nc(-c2ccc(F)cc2)c2c1CCN(C(=O)C[C@H](N)Cc1cc(F)ccc1F)C2`: the pIC50 in data set [1] was < 4.00.
Consider `Cn1nc2c(c1-c1ccc(F)cc1)CN(C(=O)C[C@H](N)Cc1cc(F)ccc1F)CC2`, for which the pIC50 in data set [1] is < 4.00.
Regarding `Cn1nc2c(c1C(F)(F)F)CN(C(=O)C[C@H](N)Cc1cc(F)ccc1F)CC2`, the pIC50 in data set [1] and in data set [2] was < 4.00 each time.
In the case of `N[C@@H](CC(=O)N1CCc2oc(C3CC3)nc2C1)Cc1cc(F)ccc1F`, the pIC50 in data set [1] and in data set [6] was < 4.00 throughout.
In data set [3], `CS(=O)(=O)c1ccc(-c2nc3c(s2)CCN(C(=O)C[C@H](N)Cc2cc(F)ccc2F)C3)cc1` had a half-life of 1.5 h. Further, the bioavailability in data set [4] came out at 20%. The clearance in data set [5] was determined as 60 mL/min/kg.
In the case of `N[C@@H](CC(=O)N1CCc2sc(-c3ccc(F)cc3)nc2C1)Cc1cc(F)ccc1F`, in data set [3], the half-life is 3.3 h. In addition, in data set [4], the bioavailability was found to be 55%. This compound came in with a clearance in data set [5] of 91 mL/min/kg.
On to `N[C@@H](CC(=O)N1CCCc2n[nH]c(C(F)(F)F)c21)Cc1cc(F)ccc1F`, for which the pIC50 in data set [1] and in data set [2] was < 4.00 throughout.
